The values that follow come from PubChem BioAssay (NCI).

Some test systems named below: HL-60(TB) leukemia; HOP-62 NSCLC; K-562 leukemia; NCI-H23 lung; RXF 393 renal; SK-MEL-5 melanoma; SN12C renal; SNB-19 CNS; MCF7 breast.
Holding throughout (assay): DTP human tumour cell line panel, 48 h

Molecules are shown by their SMILES. “And” between values parts separate entries of the source, which are not always exact repeats. Equal entries are not always repeated.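 Cultured in 96-well plates, cells were exposed to test compound for 48 hours across five concentrations. The concentration for 50% growth inhibition is given as GI50. TGI denotes the concentration required for complete inhibition of growth.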 Where only a bound is given, the exact number is not on record here.

In the case of `O=C(N/C(=C\c1ccc(/C=C(\NC(=O)c2ccccc2)c2nc3ccccc3s2)cc1)c1nc2ccccc2s1)c1ccccc1`, the TGI in the assay on HL-60(TB) leukemia is 5.71 µM; in the assay with HOP-62 NSCLC, 32.3 µM; with K-562 leukemia it was over 100 µM; with NCI-H23 lung, 29.9 µM; with RXF 393 renal, 32.6 µM; in the assay on SK-MEL-5 melanoma, 17.8 µM. In addition, the TGI with SN12C renal amounted to 12.6 µM; in the assay with SNB-19 CNS, 14.5 µM.

Consider `CC1[C@@H]2CC=C3[C@H]4CCC5Cc6nc7c(nc6C[C@@]5(C)C4(O)CC(=O)[C@]32CO[C@]12OC(C)(C)CC2O)CC1CC[C@@H]2C3=C[C@H]4O[C@@]5(O[C@@](C)(CO)C[C@@H]5O)C(C)[C@@]4(O)[C@]3(C)[C@@H](O)CC2[C@]1(C)C7` (some centres not stated), for which the concentration for 50% growth inhibition (GI50) in the assay with HL-60(TB) leukemia was 0.00036 µM; in the assay with HOP-62 NSCLC, 0.000104 µM and 0.00036 µM; with K-562 leukemia it was 0.000149 µM and 0.00112 µM; with NCI-H23 lung, 0.00071 µM and 0.00224 µM; in the assay with RXF 393 renal, 0.00036 µM; in the assay on SK-MEL-5 melanoma it was 0.000717 µM and 0.00638 µM. In addition, the GI50 in the assay with SNB-19 CNS is 0.00241 µM and 0.0164 µM. The TGI in the assay on HOP-62 NSCLC was 0.000831 µM and 0.00257 µM; with K-562 leukemia, 0.021 µM and 0.0595 µM; with MCF7 breast it was 0.441 µM; in the assay with NCI-H23 lung it was 0.143 µM and 0.377 µM; with RXF 393 renal, 0.000371 µM and 0.00217 µM; in the assay with SN12C renal, over 3.6 µM. In addition, the concentration for total growth inhibition (TGI) with SNB-19 CNS is 0.393 µM and > 3.6 µM.

As for `Cn1c(=O)c(C(=O)NC(=O)NCCCCCOC(=O)CCCCCCCCCCC(=O)OCCCCCNC(=O)NC(=O)c2cn(Cc3ccccc3)c(=O)n(C)c2=O)cn(Cc2ccccc2)c1=O`, the TGI in the assay with HL-60(TB) leukemia, with HOP-62 NSCLC, in the assay with K-562 leukemia, with NCI-H23 lung, with RXF 393 renal and in the assay on SK-MEL-5 melanoma was over 100 µM each time. Besides, the concentration for total growth inhibition (TGI) in the assay with SN12C renal and in the assay with SNB-19 CNS was over 100 µM throughout.

For the compound `CC1(C(=O)O)CCOc2ccccc21` (configuration not stated), the TGI in the assay with HL-60(TB) leukemia, in the assay on HOP-62 NSCLC, in the assay on K-562 leukemia, in the assay on NCI-H23 lung, with RXF 393 renal and with SK-MEL-5 melanoma was over 100 µM in each case. Besides, the TGI in the assay with SN12C renal and with SNB-19 CNS was over 100 µM throughout.

On to `O=C(Nc1nc2ccc([N+](=O)[O-])cc2s1)C(=O)C(C(=O)c1ccncc1)C1OC(=O)c2ccccc21` (configuration not stated), for which the TGI in the assay on HL-60(TB) leukemia, in the assay with HOP-62 NSCLC, in the assay on K-562 leukemia, in the assay with NCI-H23 lung, with RXF 393 renal and in the assay on SN12C renal was over 100 µM throughout. Further, the total growth inhibition concentration (TGI) in the assay on SNB-19 CNS is over 100 µM.

As for `CCn1c(=O)c2ccccc2n2c(=O)c3cc4ccccc4cc3nc12`, the total growth inhibition concentration (TGI) was over 100 µM in the assay with HL-60(TB) leukemia; over 100 µM in the assay with HOP-62 NSCLC; over 100 µM in the assay on K-562 leukemia; over 100 µM in the assay on NCI-H23 lung; 37 µM in the assay on RXF 393 renal; over 100 µM in the assay with SK-MEL-5 melanoma. In addition, the TGI in the assay with SN12C renal and in the assay on SNB-19 CNS was over 100 µM throughout.

Turning to `NCc1c(C(N)=O)ncn1Cc1ccccc1`, the concentration for total growth inhibition (TGI) with HL-60(TB) leukemia, in the assay on HOP-62 NSCLC, in the assay with K-562 leukemia, with NCI-H23 lung, with RXF 393 renal and in the assay with SK-MEL-5 melanoma was over 100 µM in each case. In addition, the TGI with SN12C renal and in the assay on SNB-19 CNS was over 100 µM in each case.

Consider `Cc1c(-c2nnc(-c3ccccc3)o2)c(=O)n(-c2ccccc2)n1C`, for which the TGI in the assay on HL-60(TB) leukemia, in the assay with HOP-62 NSCLC, with K-562 leukemia, in the assay on NCI-H23 lung, in the assay with RXF 393 renal and in the assay with SN12C renal was over 100 µM in each case. Besides, the TGI in the assay on SNB-19 CNS is over 100 µM.

For `CCOC(=O)N1C(c2ccccc2)C=CC(c2ccccc2)N1C(=O)OCC` (configuration not stated), the TGI in the assay with HOP-62 NSCLC, with K-562 leukemia, in the assay with NCI-H23 lung, in the assay with RXF 393 renal, in the assay on SK-MEL-5 melanoma and in the assay with SN12C renal was over 100 µM in each case. In the assay with SNB-19 CNS, this compound returned a TGI of over 100 µM.

With `O=C1C(=O)N(c2nccs2)C(=O)C(=O)C1c1nc2ccccc2s1`, the total growth inhibition concentration (TGI) with HOP-62 NSCLC, with NCI-H23 lung, in the assay with RXF 393 renal, with SN12C renal and in the assay with SNB-19 CNS was over 100 µM in each case.

As to `CC(C)CC12CC3CCC(CNC1=O)C32C` (configuration not stated), the TGI with HL-60(TB) leukemia, with HOP-62 NSCLC, with K-562 leukemia, with NCI-H23 lung, in the assay on RXF 393 renal and with SK-MEL-5 melanoma was over 100 µM in each case. For the same compound, the TGI with SN12C renal and with SNB-19 CNS was over 100 µM throughout.

For `COc1ccc(-c2ccc(-c3ccc(C(=N)N)cn3)o2)cc1Cl`, the GI50 was 2.29 µM in the assay on HL-60(TB) leukemia; 3.68 µM with HOP-62 NSCLC; 2.7 µM in the assay with K-562 leukemia; 1.92 µM with NCI-H23 lung; 1.61 µM with RXF 393 renal; 1.6 µM with SK-MEL-5 melanoma. Moreover, the GI50 in the assay with SN12C renal is 1.77 µM; in the assay with SNB-19 CNS, 1.79 µM. For the same compound, the TGI was 5.36 µM with HL-60(TB) leukemia; 14.4 µM in the assay on HOP-62 NSCLC; 7.5 µM in the assay on K-562 leukemia; 4.04 µM with NCI-H23 lung; 3.07 µM with RXF 393 renal; 2.97 µM in the assay with SK-MEL-5 melanoma. Further, the TGI was 3.45 µM in the assay on SN12C renal and 3.4 µM in the assay with SNB-19 CNS.

Take `Cc1ccc(C2=C(c3ccc(C)cc3)C(c3ccc(C)cc3)=C(c3ccc(C)cc3)C2=O)cc1`: the TGI with HOP-62 NSCLC, with K-562 leukemia, with NCI-H23 lung, in the assay with RXF 393 renal, in the assay on SK-MEL-5 melanoma and in the assay with SN12C renal was over 100 µM each time. The concentration for total growth inhibition (TGI) in the assay with SNB-19 CNS was over 100 µM.

On to `O=c1cccccc1[O-].O=c1cccccc1[O-].O=c1cccccc1[O-].[Ce+3]`, for which the total growth inhibition concentration (TGI) in the assay with HL-60(TB) leukemia is 89 µM; in the assay with HOP-62 NSCLC it was 45.3 µM; with K-562 leukemia, over 100 µM; with NCI-H23 lung, 86.1 µM; in the assay on RXF 393 renal, 40.4 µM; in the assay with SK-MEL-5 melanoma it was 38.8 µM. The TGI in the assay with SN12C renal and with SNB-19 CNS was over 100 µM in each case. Moreover, the GI50 in the assay with HOP-62 NSCLC was 17.4 µM; in the assay with SN12C renal it was 25.7 µM.

Regarding `CCCCn1c2ccccc2c2ccc3c(c21)C(=O)C=CC3=O`, the TGI with HOP-62 NSCLC, with K-562 leukemia, in the assay on NCI-H23 lung, in the assay with SK-MEL-5 melanoma, with SN12C renal and in the assay on SNB-19 CNS was over 100 µM throughout.

As usually defined, the TGI is the concentration at which net growth stops. Low values mean more potent growth arrest, high ones less potent growth arrest. As usually defined, the GI50 is the concentration that inhibits growth by half.
